PMC4794757 (Bioorganic & medicinal chemistry letters, 2016)

How the values were obtained:
[1] = target: hmGlu1 (Homo sapiens, UniProt Q13255); assay: Calcium mobilization mGlu1 assay; format: cell-based; conditions: for mGlu1 pEC50 (±SEM) / hmGlu1 EC50: calcium mobilization; for mGlu1 pEC50 (±SEM): n=3; for hmGlu1 EC50: average of n=3 in triplicate
[2] = Rat iv PK; format: in vivo; conditions: rat iv clearance versus rat microsomal prediction
[3] = target: hmGlu4 (Homo sapiens, UniProt Q14833); assay: mGlu4 counter-screen; format: cell-based; conditions: selectivity mGlu1 versus mGlu4
hmGlu4, sequence (Q14833 33-912): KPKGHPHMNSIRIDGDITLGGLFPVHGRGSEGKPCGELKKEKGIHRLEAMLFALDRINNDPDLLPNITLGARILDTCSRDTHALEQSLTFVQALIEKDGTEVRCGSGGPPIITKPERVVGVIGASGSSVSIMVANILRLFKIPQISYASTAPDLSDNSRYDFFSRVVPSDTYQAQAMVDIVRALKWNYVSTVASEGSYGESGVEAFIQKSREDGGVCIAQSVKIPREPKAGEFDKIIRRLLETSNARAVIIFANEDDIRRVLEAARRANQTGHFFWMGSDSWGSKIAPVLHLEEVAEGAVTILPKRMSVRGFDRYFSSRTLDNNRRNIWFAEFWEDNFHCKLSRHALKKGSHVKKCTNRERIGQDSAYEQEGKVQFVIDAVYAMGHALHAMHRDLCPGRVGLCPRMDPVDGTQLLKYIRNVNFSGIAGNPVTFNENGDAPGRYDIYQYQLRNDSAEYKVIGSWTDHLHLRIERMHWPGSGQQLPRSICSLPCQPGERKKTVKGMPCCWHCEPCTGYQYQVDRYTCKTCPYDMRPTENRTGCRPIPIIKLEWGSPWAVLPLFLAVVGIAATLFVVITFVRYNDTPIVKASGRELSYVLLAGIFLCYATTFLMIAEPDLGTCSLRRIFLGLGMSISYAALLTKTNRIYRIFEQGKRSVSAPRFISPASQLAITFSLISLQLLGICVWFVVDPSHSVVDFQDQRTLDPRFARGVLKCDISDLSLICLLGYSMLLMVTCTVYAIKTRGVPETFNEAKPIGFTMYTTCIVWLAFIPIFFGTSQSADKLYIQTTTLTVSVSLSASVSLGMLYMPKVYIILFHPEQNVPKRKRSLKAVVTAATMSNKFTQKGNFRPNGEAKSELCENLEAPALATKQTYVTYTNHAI

hmGlu1, sequence (Q13255 19-1194): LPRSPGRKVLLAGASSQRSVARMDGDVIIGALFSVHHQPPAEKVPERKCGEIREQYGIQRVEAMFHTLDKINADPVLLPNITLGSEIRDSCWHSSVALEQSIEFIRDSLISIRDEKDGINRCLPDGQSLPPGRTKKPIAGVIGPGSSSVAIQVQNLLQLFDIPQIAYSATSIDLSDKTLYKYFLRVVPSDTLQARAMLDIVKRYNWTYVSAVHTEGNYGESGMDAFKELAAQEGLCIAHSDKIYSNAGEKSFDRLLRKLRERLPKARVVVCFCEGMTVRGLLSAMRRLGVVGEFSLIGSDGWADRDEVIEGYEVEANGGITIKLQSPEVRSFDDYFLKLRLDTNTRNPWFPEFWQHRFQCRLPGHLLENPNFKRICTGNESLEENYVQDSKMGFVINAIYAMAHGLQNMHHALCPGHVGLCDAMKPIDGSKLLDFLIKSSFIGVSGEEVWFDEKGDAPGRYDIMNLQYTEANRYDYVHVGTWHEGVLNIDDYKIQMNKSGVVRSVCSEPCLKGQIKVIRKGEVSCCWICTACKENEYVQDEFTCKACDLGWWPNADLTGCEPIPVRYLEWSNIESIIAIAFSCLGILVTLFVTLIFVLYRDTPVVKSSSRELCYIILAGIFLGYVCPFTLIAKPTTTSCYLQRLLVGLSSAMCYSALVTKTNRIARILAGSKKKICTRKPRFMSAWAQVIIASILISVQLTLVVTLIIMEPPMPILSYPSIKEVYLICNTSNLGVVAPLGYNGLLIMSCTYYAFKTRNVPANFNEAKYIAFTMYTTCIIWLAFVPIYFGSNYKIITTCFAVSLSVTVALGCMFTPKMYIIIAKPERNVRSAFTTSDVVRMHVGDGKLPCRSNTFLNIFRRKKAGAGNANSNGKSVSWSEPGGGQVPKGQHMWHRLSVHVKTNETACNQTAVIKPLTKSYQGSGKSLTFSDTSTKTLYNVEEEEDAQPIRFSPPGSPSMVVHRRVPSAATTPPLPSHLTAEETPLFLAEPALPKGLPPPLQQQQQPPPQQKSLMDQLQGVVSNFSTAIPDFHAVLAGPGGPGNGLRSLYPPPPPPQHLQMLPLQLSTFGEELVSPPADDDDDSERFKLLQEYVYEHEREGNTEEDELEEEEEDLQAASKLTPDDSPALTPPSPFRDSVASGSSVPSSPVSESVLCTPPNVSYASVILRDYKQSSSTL

For Cc1cn[nH]c1C(=O)Nc1ccc(N2C(=O)c3ccccc3C2=O)c(Cl)c1 [10k], the “mGlu1 pEC50 (±SEM)” value [1] was 5.91±0.21.
With Cc1ccc2c(c1)C(=O)N(c1ccc(NC(=O)c3occc3C)c(F)c1)C2=O [13a] the “in vivo clearance lower than the in vitro predicted value” [2] was 8 times.
For Cc1cccc2c1C(=O)N(c1ccc(NC(=O)c3ncsc3C)cc1Cl)C2=O [11i], the “mGlu1 pEC50 (±SEM)” value [1] was 6.64±0.14.
With Cc1ccoc1C(=O)Nc1ccc(N2C(=O)c3ccc(F)cc3C2=O)cc1F [13d] the “mGlu1 pEC50 (±SEM)” value [1] was 7.71±0.06.
In the case of Cc1ccoc1C(=O)Nc1ccc(N2C(=O)c3cccc(C)c3C2=O)cc1F [13b], the “in vivo clearance lower than the in vitro predicted value” [2] is reported as 4 times.
With Cc1ocnc1C(=O)Nc1ccc(N2C(=O)c3ccccc3C2=O)c(Cl)c1 [10g] the “mGlu1 pEC50 (±SEM)” value [1] was 5.83±0.02.
With Cc1ccsc1C(=O)Nc1ccc(N2C(=O)c3ccccc3C2=O)c(Cl)c1 [10d] the EC50 [1] was 1.5 to 1.8 µM and the “mGlu1 pEC50 (±SEM)” value [1] was 5.72±0.27.
For Cc1ccoc1C(=O)Nc1ccc(N2C(=O)c3ccc(Cl)cc3C2=O)cc1F [13c], the “mGlu1 pEC50 (±SEM)” value [1] was 8.27±0.02.
For Cc1ncsc1C(=O)Nc1ccc(N2C(=O)c3ccccc3C2=O)c(Cl)c1 [10h], the “mGlu1 pEC50 (±SEM)” value [1] was greater than 5.
In the case of Cc1ccc2c(c1)C(=O)N(c1ccc(NC(=O)c3ncoc3C)cc1Cl)C2=O [11a], the “mGlu1 pEC50 (±SEM)” value [1] is reported as 7.38±0.11.
For Cc1scnc1C(=O)Nc1ccc(N2C(=O)c3ccc(Cl)cc3C2=O)c(Cl)c1 [11j], the “mGlu1 pEC50 (±SEM)” value [1] was 7.30±0.15.
For Cc1ncoc1C(=O)Nc1ccc(N2C(=O)c3ccccc3C2=O)c(Cl)c1 [10f], the “mGlu1 pEC50 (±SEM)” value [1] was greater than 5.
In the case of Cc1cn[nH]c1C(=O)Nc1ccc(N2C(=O)c3cccc(Cl)c3C2=O)c(Cl)c1 [11y], the “mGlu1 pEC50 (±SEM)” value [1] is reported as greater than 5.
For Cc1ccoc1C(=O)Nc1ccc(N2C(=O)c3cccc(F)c3C2=O)cc1F [13e], the “mGlu1 pEC50 (±SEM)” value [1] was 7.65±0.07.
In the case of Cc1scnc1C(=O)Nc1ccc(N2C(=O)c3cccnc3C2=O)c(Cl)c1 [11n], the “Fold versus mGlu4” value [3] is reported as greater than 52 fold.
With Cc1scnc1C(=O)Nc1ccc(N2C(=O)c3cccc(Cl)c3C2=O)c(Cl)c1 [11k] the “mGlu1 pEC50 (±SEM)” value [1] was 5.86±0.28 and the “Fold versus mGlu4” value [3] was greater than 7.3 fold.
For Cc1scnc1C(=O)Nc1ccc(N2C(=O)c3ccccc3C2=O)c(Cl)c1 [10i], the “potency increase relative to the unsubstituted thiazole” value ([1]; effect of a single methyl group) was roughly 200 fold.
In the case of Cc1cn[nH]c1C(=O)Nc1ccc(N2C(=O)c3cccc(F)c3C2=O)c(Cl)c1 [11aa], the “Fold versus mGlu4” value [3] is reported as greater than 16 fold.
With Cc1ccc2c(c1)C(=O)N(c1ccc(NC(=O)c3nccn3C)cc1Cl)C2=O [11o] the “mGlu1 pEC50 (±SEM)” value [1] was 6.60±0.20.
With Cc1[nH]ccc1C(=O)Nc1ccc(N2C(=O)c3ccccc3C2=O)c(Cl)c1 [10b] the “mGlu1 pEC50 (±SEM)” value [1] was greater than 5.
With Cc1ccc2c(c1)C(=O)N(c1ccc(NC(=O)c3[nH]ncc3C)cc1Cl)C2=O [11v] the “mGlu1 pEC50 (±SEM)” value [1] was 6.25±0.16.
For Cc1cccc2c1C(=O)N(c1ccc(NC(=O)c3nccn3C)cc1Cl)C2=O [11p], the “mGlu1 pEC50 (±SEM)” value [1] was greater than 5.
For CN1CCC[C@H]1C(=O)Nc1ccc(N2C(=O)c3ccccc3C2=O)c(Cl)c1 [10m], the “hmGlu1 EC50” value [1] was “inactive” and the “mGlu1 pEC50 (±SEM)” value [1] was greater than 5.
With Cc1ocnc1C(=O)Nc1ccc(N2C(=O)c3ccc(Cl)cc3C2=O)c(Cl)c1 [11c] the “mGlu1 pEC50 (±SEM)” value [1] was 7.26±0.13.
In the case of Cn1ccnc1C(=O)Nc1ccc(N2C(=O)c3cccc(F)c3C2=O)c(Cl)c1 [11t], the “mGlu1 pEC50 (±SEM)” value [1] is reported as greater than 5.
For Cn1ccnc1C(=O)Nc1ccc(N2C(=O)c3ccc(Cl)cc3C2=O)c(Cl)c1 [11q], the “mGlu1 pEC50 (±SEM)” value [1] was 6.58±0.13.
In the case of Cn1ccnc1C(=O)Nc1ccc(N2C(=O)c3cccc(Cl)c3C2=O)c(Cl)c1 [11r], the “mGlu1 pEC50 (±SEM)” value [1] is reported as greater than 5.
For Cc1cn[nH]c1C(=O)Nc1ccc(N2C(=O)c3cccc(C)c3C2=O)c(Cl)c1 [11w], the “mGlu1 pEC50 (±SEM)” value [1] was 5.36±0.22 and the “Fold versus mGlu4” value [3] was greater than 2 fold.
With CN1CCC[C@@H]1C(=O)Nc1ccc(N2C(=O)c3ccccc3C2=O)c(Cl)c1 [10l] the “hmGlu1 EC50” value [1] was “inactive” and the “mGlu1 pEC50 (±SEM)” value [1] was greater than 5.
In the case of Cn1ccnc1C(=O)Nc1ccc(N2C(=O)c3cccnc3C2=O)c(Cl)c1 [11u], the “mGlu1 pEC50 (±SEM)” value [1] is reported as greater than 5.
